Experimental findings from US11078228B2, “Ectonucleotidase inhibitors and methods of use thereof” (Calithera Biosciences, Inc., priority 2018, dated 2021) are described below.

A word on the IC50: it is the concentration needed to halve the response being measured.

The target of this test is recombinant CD73 (Homo sapiens (Human), UniProt P21589). The test is described as follows: Assay 1: Inhibition of the CD73 enzyme in vitro (0.5 nM CD73, 30 min room temperature, Malachite Green). The note with it: 0.5 nM CD73, 30 minutes at room temperature. The test is classed as biochemical. An outline of the steps: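 Soluble recombinant human CD73; reaction run 30 min at room temperature, then Malachite Green added. Absorbance at 630 nm read after 5 min, with released inorganic phosphate quantified against a phosphate standard curve.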
Sequence of recombinant CD73 (P21589 27-547): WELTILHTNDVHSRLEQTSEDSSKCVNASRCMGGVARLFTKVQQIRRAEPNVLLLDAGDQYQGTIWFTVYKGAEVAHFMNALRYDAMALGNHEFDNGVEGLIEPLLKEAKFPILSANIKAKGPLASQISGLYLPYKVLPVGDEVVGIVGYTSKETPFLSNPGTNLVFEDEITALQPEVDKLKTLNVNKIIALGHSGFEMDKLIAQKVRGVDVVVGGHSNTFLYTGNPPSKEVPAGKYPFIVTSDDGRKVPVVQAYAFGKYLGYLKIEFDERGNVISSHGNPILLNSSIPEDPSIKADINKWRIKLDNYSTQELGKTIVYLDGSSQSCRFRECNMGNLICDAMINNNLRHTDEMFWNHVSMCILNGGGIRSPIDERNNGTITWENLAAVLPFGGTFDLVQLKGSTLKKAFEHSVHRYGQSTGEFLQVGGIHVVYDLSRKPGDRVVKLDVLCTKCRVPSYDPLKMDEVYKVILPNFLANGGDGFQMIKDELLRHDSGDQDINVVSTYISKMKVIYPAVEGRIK
Regarding `C#C[C@@]1(O)[C@@H](COC(Cc2ccccc2)(C(=O)O)C(=O)O)O[C@@H](n2cnc3c(NCCN(CC)CC)nc(Cl)nc32)[C@@H]1O` [Example 61, 2-benzyl-2-(((2R,3S,4R,5R)-5-(2-chloro-6-((2-(diethylamino)ethyl)-amino)-9H-purin-9-yl)-3-ethynyl-3,4-dihydroxytetrahydrofuran-2-yl)methoxy)-malonic acid], the IC50 came to 1.5 nM.
To `C#C[C@@]1(O)[C@@H](COC(Cc2cccc(Cl)c2)(C(=O)O)C(=O)O)O[C@@H](n2cnc3c(N)nc(Cl)nc32)[C@@H]1O` [Example 51, 2-(((2R,3S,4R,5R)-5-(6-amino-2-chloro-9H-purin-9-yl)-3-ethynyl-3,4-dihydroxytetrahydrofuran-2-yl)methoxy)-2-(3-chlorobenzyl)malonic acid] belongs 3 nM; to `C#C[C@@]1(O)[C@@H](COC(Cc2ccccc2)(C(=O)O)C(=O)O)O[C@@H](n2cnc3c(N4CCCC4)nc(Cl)nc32)[C@@H]1O` [Example 90, 2-benzyl-2-(((2R,3S,4R,5R)-5-(2-chloro-6-(pyrrolidin-1-yl)-9H-purin-9-yl)-3-ethynyl-3,4-dihydroxytetrahydrofuran-2-yl)methoxy)malonic acid], 0.9 nM.
As for `C#C[C@@]1(O)[C@@H](COC(Cc2ccccc2)(C(=O)O)C(=O)O)O[C@@H](n2cnc3c(NC4CCOCC4)nc(Cl)nc32)[C@@H]1O` [Example 60, 2-benzyl-2-(((2R,3S,4R,5R)-5-(2-chloro-6-((tetrahydro-2H-pyran-4-yl)amino)-9H-purin-9-yl)-3-ethynyl-3,4-dihydroxytetrahydrofuran-2-yl)methoxy)malonic acid], the figure is 3 nM; as for `CC[C@@]1(O)[C@@H](COC(C(=O)O)C(=O)O)O[C@@H](n2cnc3c(N)nc(Cl)nc32)[C@@H]1O` [Example 55, 2-(((2R,3S,4R,5R)-5-(6-amino-2-chloro-9H-purin-9-yl)-3-ethyl-3,4-dihydroxytetrahydrofuran-2-yl)methoxy)malonic acid], 35 nM.
With `C#C[C@@]1(O)[C@@H](COC(Cc2ccccc2)(C(=O)O)C(=O)O)O[C@@H](n2cnc3c(NC4CCCC4)nc(Cl)nc32)[C@@H]1O` [Example 91, 2-benzyl-2-(((2R,3S,4R,5R)-5-(2-chloro-6-(cyclopentylamino)-9H-purin-9-yl)-3-ethynyl-3,4-dihydroxytetrahydrofuran-2-yl)methoxy)malonic acid], the IC50 was found to be 0.3 nM.
To `C#C[C@@]1(O)[C@@H](COC(C(=O)NO)c2cscn2)O[C@@H](n2cnc3c(N)nc(Cl)nc32)[C@@H]1O` (single isomer, unassigned) [Example 185] belongs 11700 nM.
